For the data set the following is noted: Crystal; DTA.

± gives the expanded uncertainty stated by the source.

For `Brc1sc(Br)c(Br)c1Br` [perbromothiophene], the Normal melting temperature was 118.60 ± 4 °C.

Source of the values: the NIST ThermoML archive (doi:10.1016/j.fluid.2013.11.023).
